Reference: paper PMC9025560, “A Comparison of Evans Blue and 4-(p-Iodophenyl)butyryl Albumin Binding Moieties on an Integrin αvβ6 Binding Peptide” (Pharmaceutics, 2022)
Read-outs that look alike come from different tables or passages of the source.

Tests used:
BxPC-3 xenograft tumors = assay: Biodistribution in mice bearing BxPC-3 xenograft tumors; format: in vivo; conditions: for Kidneys uptake: i.v.
Experimental: (§1) All animal procedures conformed to the Animal Welfare Act and were approved by the University of California, Davis Institutional Animal Care and Use Committee. Female athymic nu/nu-nude mice (6–8 weeks old) were purchased from Charles River Laboratories (Wilmington, MA, USA) and provided food and water on an ad libitum basis. BxPC-3 xenografts were implanted according to previous methods. Briefly, BxPC-3 cells were evaluated by flow cytometry to confirm integrin αvβ6 expression levels, injected subcutaneously into the left flank [5 million in 100 μL of a 1:1 mixture of serum-free RPMI and GFR Matrigel (Corning, New York, NY, USA)], and allowed to grow for approximately 3 weeks until tumors reached a diameter of 0.5–1 cm.
(§2) For biodistribution studies the [^64Cu]1–4 (3.7–5.55 MBq) in PBS (100 μL, pH 7.2) was injected intravenously (i.v.) via catheter into the tail vein. Following a conscious uptake period, the mice were anesthetized (5% isoflurane), euthanized, and dissected ([^64Cu]1 and [^64Cu]2, n = 3/radiolabeled peptide/time point; 4, 24, and 48 h p.i.; the 72 h time point was obtained from the imaging animals after the 72 h PET/CT scans; compounds [^64Cu]3 and [^64Cu]4, n = 2/radiolabeled compound at 4 h p.i.). Tissues were rapidly collected, weighed, and radioactivity measured with a γ-counter. Decay-corrected radioactivity concentrations are expressed as the percentage of injected dose per gram of tissue (% ID/g). Data are reported as mean ± standard deviation (SD) (Figure S20, S21 and S25).

[1] = as above; format: in vivo; conditions: female, athymic nu/nu-nude, mouse, in vivo, iv, total radioactivity, i.v.; for tissue uptake at 4 h: 4 h p.i.
Experimental: as §1, §2

## Cc1cc(-c2ccc(NC(=O)CCC(=O)NCCCC[C@H](NC(=O)CN3CCN(CC(=O)O)CCN(CC(=O)O)CCN(CC(=O)O)CC3)C(=O)NCCOCCOCCOCCOCCOCCOCCOCCOCCOCCOCCOCCOCCOCCOCCOCCOCCOCCOCCOCCOCCOCCOCCOCCOCCOCCOCCOCCOCCC(=O)N[C@@H](CC(N)=O)C(=O)N[C@@H](C)C(=O)N[C@H](C(=O)N3CCC[C@H]3C(=O)N[C@@H](CC(N)=O)C(=O)N[C@@H](CC(C)C)C(=O)N[C@@H](CCCNC(=N)N)C(=O)NCC(=O)N[C@@H](CC(=O)O)C(=O)N[C@@H](CC(C)C)C(=O)N[C@@H](CCC(N)=O)C(=O)N[C@H](C(=O)N[C@@H](CC(C)C)C(=O)N[C@@H](C)C(=O)N[C@@H](CCC(N)=O)C(=O)N[C@@H](CCCNC(=N)N)C(=O)N[C@H](C(=O)N[C@@H](C)C(=O)N[C@@H](CCCNC(=N)N)C(=O)N[C@H](C(=O)NCCOCCOCCOCCOCCOCCOCCOCCOCCOCCOCCOCCOCCOCCOCCOCCOCCOCCOCCOCCOCCOCCOCCOCCOCCOCCOCCOCCOCCC(N)=O)[C@@H](C)O)C(C)C)C(C)C)C(C)C)c(C)c2)ccc1N=Nc1ccc2c(S(=O)(=O)O)cc(S(=O)(=O)O)c(N)c2c1O [[^64Cu]1, [^64Cu]Cu DOTA-EB-αvβ6-BP, metal not drawn]
BxPC-3 xenograft tumors; 4 h p.i.
  Tumor-Blood ratio: > 4/1
  Tumor-Kidney ratio: 0.07 ± 0.003
  Tumor-Lg Intestines ratio: 1.28 ± 0.12
  Tumor-Liver ratio: 3.2–4.9
  Tumor-Muscle ratio: > 8/1
  Tumor-Sm Intestines ratio: 1.12 ± 0.05
  Tumor-Stomach ratio: 0.83 ± 0.03
  Kidneys uptake: 75.5 ± 7.3 % ID/g
BxPC-3 xenograft tumors; 4 h p.i., listed as [64Cu]1
  Tumor-Blood ratio: 4.30 ± 1.47
  Tumor-Liver ratio: 3.24 ± 0.14
  Tumor-Muscle ratio: 7.95 ± 0.55
BxPC-3 xenograft tumors; 24 h p.i.
  Tumor-Blood ratio: 15.41 ±3.77
  Tumor-Kidney ratio: 0.13 ± 0.06
  Tumor-Lg Intestines ratio: 1.41 ±0.43
  Tumor-Liver ratio: 2.39 ± 0.59
  Tumor-Muscle ratio: 9.47 ±4.84
  Tumor-Sm Intestines ratio: 1.75 ±0.52
  Tumor-Stomach ratio: 1.19 ±0.02
BxPC-3 xenograft tumors; 48 h p.i.
  Tumor-Blood ratio: 12.03± 1.44
  Tumor-Kidney ratio: 0.15 ± 0.02
  Tumor-Lg Intestines ratio: 1.51 ± 0.58
  Tumor-Liver ratio: 1.51 ± 0.29
  Tumor-Muscle ratio: 8.39 ± 3.59
  Tumor-Sm Intestines ratio: 2.18 ± 0.91
  Tumor-Stomach ratio: 1.41 ± 0.79
BxPC-3 xenograft tumors; 72 h
  Fold higher liver uptake than [64Cu]2: > 1.8 fold
BxPC-3 xenograft tumors; 72 h p.i.
  Tumor-Blood ratio: 10.07 ± 3.24
  Tumor-Kidney ratio: 0.19 ± 0.08
  Tumor-Lg Intestines ratio: 1.75 ±0.48
  Tumor-Liver ratio: 1.47 ± 0.47
  Tumor-Muscle ratio: 8.11 ±3.02
  Tumor-Sm Intestines ratio: 2.43 ±0.45
  Tumor-Stomach ratio: 1.65 ±0.32
  Kidneys uptake: 20.0 ± 6.9 % ID/g
BxPC-3 xenograft tumors; BxPC-3 tumor model
  Fold increase in tumor accumulation over non-ABM [64Cu]Cu DOTA-αvβ6-BP: > 3 fold
BxPC-3 xenograft tumors; for at least 48 h
  Fold higher kidney uptake than [64Cu]2: > 1.7 fold
[1]; read-out: Blood uptake
  tissue uptake at 4 h: 1.3 ± 0.31 %ID/g
[1]; read-out: Bone uptake
  tissue uptake at 4 h: 0.44 ± 0.04 %ID/g
[1]; read-out: Brain uptake
  tissue uptake at 4 h: 0.09 ± 0.02 %ID/g
[1]; read-out: BxPC-3 Tumor uptake
  tissue uptake at 4 h: 5.29 ± 0.59 %ID/g
[1]; read-out: Fecal Matter radioactivity
  tissue uptake at 4 h: 3.03 ± 0.67 %ID/g
[1]; read-out: Gall Bladder uptake
  tissue uptake at 4 h: 2.12 ± 0.51 %ID/g
[1]; read-out: Heart uptake
  tissue uptake at 4 h: 0.99 ± 0.08 %ID/g
[1]; read-out: Kidneys uptake
  tissue uptake at 4 h: 75.5 ± 7.26 %ID/g
[1]; read-out: Lg. Intestines uptake
  tissue uptake at 4 h: 4.13 ± 0.1 %ID/g
[1]; read-out: Liver uptake
  tissue uptake at 4 h: 1.64 ± 0.2 %ID/g
[1]; read-out: Lung uptake
  tissue uptake at 4 h: 2.71 ± 0.57 %ID/g
[1]; read-out: Muscle uptake
  tissue uptake at 4 h: 0.67 ± 0.1 %ID/g
[1]; read-out: Pancreas uptake
  tissue uptake at 4 h: 0.46 ± 0.06 %ID/g
[1]; read-out: Skin uptake
  tissue uptake at 4 h: 1.56 ± 0.34 %ID/g
[1]; read-out: Sm. Intestines uptake
  tissue uptake at 4 h: 4.72 ± 0.55 %ID/g
[1]; read-out: Spleen uptake
  tissue uptake at 4 h: 0.32 ± 0.28 %ID/g
[1]; read-out: Stomach uptake
  tissue uptake at 4 h: 6.41 ± 0.64 %ID/g
[1]; read-out: Urine radioactivity
  tissue uptake at 4 h: 19.6 ± 10.5 %ID/g
[1]; 24 h p.i., read-out: Blood uptake
  tissue uptake at 24 h: 0.33 ± 0.01 %ID/g
